Laboratory results taken from the supplement of paper PMC10307832.

Key:
Experiment in all cases: relative viability (nuclei count vs DMSO), 5 days (fraction); higher = more cells survive
Carboplatin + Lapatinib = compound: C1CC(C1)(C(=O)O)C(=O)O.[NH2-].[NH2-].[Pt+2] [Carboplatin] + CS(=O)(=O)CCNCc1ccc(-c2ccc3ncnc(Nc4ccc(OCc5cccc(F)c5)c(Cl)c4)c3c2)o1 [Lapatinib] (partner 2 µM)
Outline: (§1)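 For relative viability, nuclei counts in treated wells were divided by those in vehicle wells. Lung cancer cell lines had been pin-tool dosed in 1536-well plates the day after seeding and cultured for 5 days, then fixed and stained in one step (final 0.05% Triton X-100, 1% formaldehyde, 1 ug/ml Hoechst) and imaged at 4×. Doses were one drug alone or a fixed anchor-drug dose plus five library-drug doses (not always all listed) in √10 steps, and values are duplicate-plate medians.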

MLN4924 + Trametinib = compound: NS(=O)(=O)OC[C@@H]1C[C@@H](n2ccc3c(N[C@H]4CCc5ccccc54)ncnc32)C[C@@H]1O [MLN4924] + CC(=O)Nc1cccc(-n2c(=O)n(C3CC3)c(=O)c3c(Nc4ccc(I)cc4F)n(C)c(=O)c(C)c32)c1 [Trametinib] (partner 0.02 µM)
Outline: as §1

MLN4924 + Crizotinib = compound: NS(=O)(=O)OC[C@@H]1C[C@@H](n2ccc3c(N[C@H]4CCc5ccccc54)ncnc32)C[C@@H]1O [MLN4924] + C[C@@H](Oc1cc(-c2cnn(C3CCNCC3)c2)cnc1N)c1c(Cl)ccc(F)c1Cl [Crizotinib] (partner 1 µM)
Outline: as §1

MLN4924 + Palbociclib = compound: NS(=O)(=O)OC[C@@H]1C[C@@H](n2ccc3c(N[C@H]4CCc5ccccc54)ncnc32)C[C@@H]1O [MLN4924] + CC(=O)c1c(C)c2cnc(Nc3ccc(N4CCNCC4)cn3)nc2n(C2CCCC2)c1=O [Palbociclib] (partner 0.5 µM)
Outline: as §1

Row | Cell Line | relative viability (Carboplatin + Lapatinib; first compound 0.08 µM) | relative viability (Carboplatin + Lapatinib; first compound 0.253 µM) | relative viability (Carboplatin + Lapatinib; first compound 0.8 µM) | relative viability (Carboplatin + Lapatinib; first compound 2.53 µM) | relative viability (Carboplatin + Lapatinib; first compound 8 µM) | relative viability (MLN4924 + Trametinib; first compound 0.04 µM) | relative viability (MLN4924 + Trametinib; first compound 0.1265 µM) | relative viability (MLN4924 + Trametinib; first compound 0.4 µM) | relative viability (MLN4924 + Trametinib; first compound 1.265 µM) | relative viability (MLN4924 + Trametinib; first compound 4 µM) | relative viability (MLN4924 + Crizotinib; first compound 0.04 µM) | relative viability (MLN4924 + Crizotinib; first compound 0.1265 µM) | relative viability (MLN4924 + Crizotinib; first compound 0.4 µM) | relative viability (MLN4924 + Crizotinib; first compound 1.265 µM) | relative viability (MLN4924 + Crizotinib; first compound 4 µM) | relative viability (MLN4924 + Palbociclib; first compound 0.04 µM) | relative viability (MLN4924 + Palbociclib; first compound 0.1265 µM) | relative viability (MLN4924 + Palbociclib; first compound 0.4 µM) | relative viability (MLN4924 + Palbociclib; first compound 1.265 µM) | relative viability (MLN4924 + Palbociclib; first compound 4 µM)
1 | LC-2-ad | 0.967 | 0.981 | 0.938 | 0.991 | 0.844 | 0.95 | 0.827 | 0.701 | 0.541 | 0.305 | 0.517 | 0.419 | 0.341 | 0.264 | 0.156 | 0.443 | 0.427 | 0.432 | 0.233 | 0.196
2 | NCI-H460 | 0.977 | 0.87 | 0.957 | 0.779 | 0.336 | 0.3 | 0.205 | 0.332 | 0.0885 | 0.0366 | 0.886 | 0.929 | 0.689 | 0.0391 | 0.0185 | 0.189 | 0.121 | 0.0985 | 0.0213 | 0.0283
3 | NCI-H1915 | 0.906 | 1.03 | 0.976 | 0.999 | 0.577 | 0.346 | 0.39 | 0.403 | 0.261 | 0.167 | 0.862 | 0.751 | 0.844 | 0.19 | 0.15 | 0.501 | 0.396 | 0.389 | 0.161 | 0.121
4 | NCI-H1299 | 0.993 | 0.922 | 0.944 | 0.907 | 0.892 |  |  |  |  |  | 0.875 | 0.825 | 0.4 | 0.252 | 0.246 |  |  |  |  | 
5 | HOP-62 | 0.98 | 1.07 | 1.09 | 1.02 | 0.812 | 0.432 | 0.567 | 0.369 | 0.103 | 0.0823 | 0.701 | 0.261 | 0.167 | 0.0427 | 0.0866 | 0.367 | 0.185 | 0.0998 | 0.0286 | 0.0302
6 | EPLC-272H | 1.01 | 1.14 | 0.961 | 0.981 | 0.901 | 0.339 | 0.333 | 0.0863 | 0.147 | 0.126 | 0.812 | 0.603 | 0.0795 | 0.136 | 0.201 | 0.29 | 0.281 | 0.102 | 0.232 | 0.181
7 | NCI-H647 | 1.29 | 1.1 | 1.02 | 0.98 | 0.862 | 0.576 | 0.538 | 0.25 | 0.0717 | 0.072 | 0.925 | 0.665 | 0.197 | 0.0313 | 0.0474 | 0.22 | 0.264 | 0.0524 | 0.029 | 0.0424
8 | NCI-H1792 | 1 | 1.02 | 0.941 | 0.817 | 0.8 | 0.376 | 0.441 | 0.566 | 0.433 | 0.238 | 0.961 | 0.906 | 0.834 | 0.69 | 0.346 | 0.654 | 0.583 | 0.689 | 0.453 | 0.353
9 | NCI-H2009 | 1.37 | 0.89 | 0.837 | 0.958 | 0.572 | 0.342 | 0.322 | 0.238 | 0.136 | 0.105 | 0.859 | 0.544 | 0.242 | 0.0917 | 0.0613 | 0.0712 | 0.0898 | 0.0671 | 0.0534 | 0.0501
10 | NCI-H1563 | 0.998 | 1.07 | 1.11 | 0.925 | 0.979 |  |  |  |  |  | 1.1 | 1.14 | 1.01 | 0.579 | 0.552 |  |  |  |  | 
11 | NCI-H1648 |  |  |  |  |  | 0.481 | 0.353 | 0.332 | 0.314 | 0.306 |  |  |  |  |  | 0.256 | 0.231 | 0.371 | 0.259 | 0.302
12 | IA-LM | 0.809 | 0.802 | 0.739 | 0.929 | 0.77 |  |  |  |  |  | 0.314 | 0.211 | 0.134 | 0.0572 | 0.0763 |  |  |  |  | 
13 | ChaGo-K-1 |  |  |  |  |  | 0.763 | 0.411 | 0.392 | 0.186 | 0.174 | 0.908 | 0.595 | 0.451 | 0.325 | 0.324 | 0.75 | 0.419 | 0.365 | 0.184 | 0.159
14 | NCI-H441 |  |  |  |  |  | 0.576 | 0.508 | 0.598 | 0.152 | 0.19 | 0.866 | 0.693 | 0.361 | 0.158 | 0.169 | 0.236 | 0.224 | 0.165 | 0.104 | 0.101
15 | NCI-H1395 | 1.23 | 1.06 | 0.984 | 0.841 | 0.607 | 1.07 | 1.02 | 0.836 | 0.392 | 0.385 |  |  |  |  |  | 0.726 | 0.679 | 0.528 | 0.357 | 0.354
16 | NCI-H596 | 1.21 | 1 | 1.07 | 0.943 | 0.886 | 0.799 | 0.833 | 0.727 | 0.649 | 0.443 | 0.886 | 1.1 | 0.501 | 0.961 | 0.758 |  |  |  |  | 
17 | Calu-6 | 1.12 | 1.06 | 1.03 | 0.87 | 0.456 |  |  |  |  |  | 0.677 | 0.426 | 0.197 | 0.0922 | 0.0977 |  |  |  |  | 
18 | NCI-H1703 | 1.13 | 0.966 | 1.13 | 0.92 | 1.28 |  |  |  |  |  | 0.214 | 0.159 | 0.187 | 0.109 | 0.0907 |  |  |  |  | 
19 | EBC-1 | 0.201 | 0.234 | 0.201 | 0.208 | 0.204 |  |  |  |  |  | 0.167 | 0.189 | 0.215 | 0.149 | 0.156 |  |  |  |  | 
20 | SW 900 |  |  |  |  |  |  | 0.764 | 0.449 | 0.291 | 0.218 |  |  |  |  |  |  | 0.439 | 0.388 | 0.231 | 0.231
21 | NCI-H522 |  |  |  |  |  | 0.638 | 0.696 | 0.691 | 0.314 | 0.386 |  |  |  |  |  | 0.835 | 0.693 | 0.741 | 0.348 | 0.37
22 | A549 | 1.12 | 0.938 | 0.911 | 0.928 | 0.437 |  |  |  |  |  | 0.772 | 0.634 | 0.416 | 0.0489 | 0.0552 |  |  |  |  | 
